Test results reported in PubChem BioAssay AID1996.
Converted amounts (≈) assume the structure as drawn.

Conditions: buffer; pH 7.4; 200.0 µM

Structure (SMILES) | solubility kinetic
Cc1cccc(C(=O)OCCN2CCOCC2)c1.Cl | > 42.9 µg/mL
COC(=O)[C@H](Cc1ccccc1)NC(=O)N1CCCCC1 | > 43.6 µg/mL
CC(=O)Nc1ccc(OC(=O)N(C)c2ccc(C)cc2)cc1 | > 44.8 µg/mL
Cc1ccc(OCC(=O)Nc2ccccc2C(=O)NC2CC2)cc1C | 0.8 µg/mL (≈ 2.36 µM)
COc1ccccc1OCCNC(=O)c1ccc2c(c1)CCC2 | 42.2 µg/mL (≈ 136 µM)
Cn1c(O)c(/C=C2\C=c3ccccc3=NC2=O)c(=O)n(C)c1=O | > 46.7 µg/mL
CC(C)N1C(=O)C(=O)N(CC(=O)N(C)c2ccccc2)C1=O | > 45.5 µg/mL
Cc1cccc(NC(=O)CSc2nc3ccccc3c(=O)n2CC2CCCO2)c1 (stereo unspecified) | 4.2 µg/mL (≈ 10.3 µM)
CC1=CC(C)(C)NC(=S)N1NC(=O)c1ccccc1Cl | > 46.5 µg/mL
COc1cccc(N2CC(C)Cn3c2nc2c3c(=O)[nH]c(=O)n2C)c1 (stereo unspecified) | 22.7 µg/mL (≈ 66.5 µM)
O=C(O)CN1C(=O)c2cccc3c(Br)ccc1c23 | > 45.9 µg/mL
O=[N+]([O-])c1cccnc1SCc1ccccc1 | 0.3 µg/mL (≈ 1.22 µM)
CC1C(=O)N2CCCc3cc(NS(=O)(=O)c4ccc(F)cc4)cc1c32 (stereo unspecified) | > 54.1 µg/mL
CCOC(=O)c1[nH]c(C=O)c(C(=O)OCC)c1C | 20.7 µg/mL (≈ 81.7 µM)
Cc1ccc(S(=O)(=O)N(C)C)cc1NC(=O)CN1CCCC1 | > 48.8 µg/mL
COc1ccc(/C=N/NC(N)=S)cc1 | > 31.4 µg/mL
CCc1ccc(CCC(=O)Nc2ccc(C(=O)O)cc2)o1 | > 43.1 µg/mL
CNc1ccc(Oc2c(F)c(F)nc(F)c2F)cc1 | 6 µg/mL (≈ 22 µM)
CCOc1cnc(-c2c(-c3c(F)cccc3Cl)noc2C)o1 | 9.1 µg/mL (≈ 28.2 µM)
O=c1[nH]c2ccc(S(=O)(=O)Nc3ccc(Cl)cc3)cc2o1 | > 48.7 µg/mL
COc1ccc(S(=O)(=O)NCCc2ccccc2)c2cccnc12 | > 51.4 µg/mL
Cc1cccnc1NC(=O)C(c1ccccc1)c1ccccc1 | > 45.4 µg/mL

Structure (SMILES) | solubility kinetic
COc1cc(C(=O)Nc2nc3ccccc3[nH]2)ccc1OC(F)F | 1 µg/mL (≈ 3 µM)
CCc1ccc(C(=O)CN2C(=O)NC(C)(c3ccc(C)cc3)C2=O)cc1 (stereo unspecified) | 2.1 µg/mL (≈ 5.99 µM)
Oc1ccc2ccccc2c1CNc1ccc(Br)cn1 | 1.9 µg/mL (≈ 5.77 µM)
COc1ccc(N=Cc2nc(-c3ccccc3)oc2OC(C)=O)cc1 | 1.6 µg/mL (≈ 4.76 µM)
S=C(CN1CCCC1=S)NCCc1ccccc1 | > 41.8 µg/mL
Cc1ncc(CN2CCCC(C(=O)c3sccc3C)C2)s1 (stereo unspecified) | 37.4 µg/mL (≈ 117 µM)
Cc1ccc(C)c(OC(C)C(=O)Nc2nccs2)c1 (stereo unspecified) | 32.8 µg/mL (≈ 119 µM)
CC1CCc2c(sc3ncnc(SCC(=O)N(C)C4CCS(=O)(=O)C4)c23)C1 (stereo unspecified) | 3.3 µg/mL (≈ 7.75 µM)
COc1ccccc1-c1nc2ccc(Cl)cc2c(=O)n1O | > 45.4 µg/mL
CCN1CCN(C(CNS(=O)(=O)c2cccs2)c2cccnc2)CC1 (stereo unspecified) | 49.3 µg/mL (≈ 130 µM)
CN(C(=O)CCc1nc2ccccc2c(=O)[nH]1)C1CCS(=O)(=O)C1 (stereo unspecified) | > 52.4 µg/mL
CCOc1ccc(Cn2cc(F)c(=O)[nH]c2=O)cc1 | > 39.6 µg/mL
CCOc1ccc(N2CC(C(=O)NCc3ccccn3)CC2=O)cc1 (stereo unspecified) | 37.5 µg/mL (≈ 110 µM)
O=C(c1ccc(-n2cccc2)cc1)N1CCCCC1 | > 38.1 µg/mL
NC(=O)c1cc[n+](CC(=O)NC(=O)Nc2ccccc2)cc1 | 30.5 µg/mL
O=C(c1ccccc1)C1CN(Cc2ccccc2)CCC1(O)c1ccccc1 (stereo unspecified) | 10.4 µg/mL (≈ 28 µM)
O=C(COC(=O)C(CO)NS(=O)(=O)c1ccc(Br)cc1)Nc1ccc2c(c1)OCCO2 (stereo unspecified) | > 77.3 µg/mL
O=C(NC1CCCCCC1)c1ccco1 | > 31.1 µg/mL
CCOC(=O)C1=C(C)NC(=O)NC1c1c(OC)ccc2ccccc12 (stereo unspecified) | 0.7 µg/mL (≈ 2.06 µM)
CN(C)c1ccc(C(=O)N2CCCC2)cc1 | > 32.7 µg/mL
CCC(NC(=S)NCc1ccc(F)cc1)c1ccc(C)cc1 (stereo unspecified) | 0.8 µg/mL (≈ 2.53 µM)
COc1ccc(CCNC(=O)c2cccnc2Cl)cc1OC | > 48.1 µg/mL

Structure (SMILES) | solubility kinetic
NS(=O)(=O)c1ccc(NC2=CC(=O)C(=O)c3ccccc32)cc1 | 13.6 µg/mL (≈ 41.4 µM)
N#CC(C#N)=C1NC(N)=C(C#N)C(c2ccccc2)=C1C#N | > 42.6 µg/mL
O=c1c2ccccc2ncn1-c1ccccc1[N+](=O)[O-] | 35.9 µg/mL (≈ 134 µM)
O=C(NCCCn1ccnc1)C(=O)c1c[nH]c2ccccc12 | > 44.4 µg/mL
O=C1c2ccsc2SCCN1Cc1c(F)cccc1Cl | 44.4 µg/mL (≈ 135 µM)
O=c1[nH]c(-[n+]2ccccc2)c(/C=N/N=C(\[O-])c2ccccc2)s1 | > 48.7 µg/mL
Cc1cc(NC(=O)CSc2ccnc(=O)[nH]2)no1 | > 39.9 µg/mL
O=C(COC(=O)c1ccc(Cl)nc1)Nc1ccc(Cl)cc1 | 6.4 µg/mL (≈ 19.7 µM)
CSc1ccc(CNCCN2CCOCC2)cc1.Cl | > 50.9 µg/mL
Cc1ccc(NC(=S)Nc2cc(C)on2)cc1 | 31.8 µg/mL (≈ 129 µM)
O=C(/C=C/c1ccco1)Oc1cccc2cccnc12 | 27.1 µg/mL (≈ 102 µM)
COc1ccc(CNCc2ccncc2)cc1OC.Cl | > 44.2 µg/mL
CCN(CC(=O)NC(=O)NCc1ccccc1)Cc1ccccc1 | 40.9 µg/mL (≈ 126 µM)
COCCCNC(=O)c1cc(C(=O)Cc2ccccc2)c[nH]1 | > 45.1 µg/mL
Fc1ccccc1-c1nc2ccccc2[nH]1 | > 31.8 µg/mL
Cc1ccc(-n2nc(C)cc2NC(=O)CC#N)cc1 | > 38.1 µg/mL
CC1CCCCC1NC1=NCCCS1 (stereo unspecified) | > 31.9 µg/mL
O=[N+]([O-])c1ccc(CNc2ccc(Cl)cc2)s1 | 6.5 µg/mL (≈ 24.2 µM)
CN1C(=O)NC(c2ccc(O)cc2)C2=C1CN(c1ccc(O)cc1)C2=O (stereo unspecified) | > 52.7 µg/mL
CS(=O)(=O)N1CCN(c2ccc([N+](=O)[O-])cc2C(F)(F)F)CC1 | 39.9 µg/mL (≈ 113 µM)
CCC1CN(C(=O)NCc2ccc(C)cc2)c2ccccc2O1 (stereo unspecified) | 20.8 µg/mL (≈ 67 µM)
COc1cc2ccccc2cc1C(=O)N1CCN(C(C)=O)CC1 | 46.6 µg/mL (≈ 149 µM)

Structure (SMILES) | solubility kinetic
C[n+]1cccc(/C=N/Nc2nc(Cl)c(C#N)c(Cl)c2Cl)c1.[Cl-] | > 56.6 µg/mL
COc1cc2c(cc1OC)CN(CC(O)c1ccccc1)CC2 (stereo unspecified) | 44.3 µg/mL (≈ 141 µM)
Cc1ccc(S(=O)(=O)Nc2c(C)cc(C)nc2Cl)cc1 | > 46.6 µg/mL
Cc1cccc(C(=O)NCC(=O)N2CCN(c3ccccn3)CC2)c1 | > 50.8 µg/mL
Cc1ccc(-c2[nH]c(=S)[nH]c(=O)c2C#N)cc1 | 30.8 µg/mL (≈ 127 µM)
CCOC(=O)C1CCN(C(=O)CSc2nc(N)cc(=O)[nH]2)CC1 | > 51.1 µg/mL
CCCCOP(=O)(OCCCC)C(O)c1ccc(N(C)C)cc1 (stereo unspecified) | > 51.5 µg/mL
Cc1sc2ncnc(N(C)C3CCCCC3)c2c1C | 1.1 µg/mL (≈ 3.99 µM)
Cc1cc(NC(=O)CN2C(=O)c3ccccc3S2(=O)=O)no1 | 32.7 µg/mL (≈ 102 µM)
CCOc1ccccc1/C=C/C(=O)N1CCN(C(=O)c2ccco2)CC1 | > 53.2 µg/mL
CC(=O)c1ccc(-n2ccnc2)cc1 | > 27.9 µg/mL
Cc1cc(C)cc(NC(=O)C(C)N2C(=O)c3ccccc3C2=O)c1 (stereo unspecified) | 14.4 µg/mL (≈ 44.7 µM)
CC1CCCN(S(=O)(=O)c2cccc([N+](=O)[O-])c2)C1 (stereo unspecified) | 13.3 µg/mL (≈ 46.8 µM)
CC(=O)Nc1ccc(NC(=O)COc2ccc(-c3ccccc3)cc2)cc1 | < 0.4 µg/mL
CCCNC(=O)NS(=O)(=O)c1ccc(Cl)cc1 | > 41.5 µg/mL
CC(C)(C)c1csc(Sc2ncccc2[N+](=O)[O-])n1 | 1.7 µg/mL (≈ 5.76 µM)
O=C(COc1ccccc1)NC1CCS(=O)(=O)C1 (stereo unspecified) | > 40.4 µg/mL
CC(=O)N[C@H](Cc1c[nH]c2ccccc12)C(=O)O | > 36.9 µg/mL
O=C(N/N=C/c1ccc([N+](=O)[O-])o1)C1CCCC1 | > 37.7 µg/mL
CCn1c(C)nc2cc(N)ccc21.Cl | 34.3 µg/mL
